Data from patent publication US3983120A, “Process for the preparation of optionally substituted 1,2,3,5-tetrahydroimidazo[2,1-b]quinazolin-2-ones” (Bristol-Myers Company, priority 1974, dated 1976).

Tests used:
[1] = literature, in words; cited from earlier work
[2] = system: ADP-induced aggregation of blood platelet-rich plasma; assay: In Vivo/In Vitro platelet aggregation (ADP) after I.P. dosing of rabbits; conditions: Oryctolagus cuniculus, ip, 2 h, dose for 50% inhibition of aggregation, one to two hours after dosing
Experimental: (§1) *In vivo/In vitro testing:
(§2) Before dosing the animals, blood samples are taken. The blood is centrifuged to obtain the blood platelet-rich plasma. Aggregation of this plasma is induced with ADP or collagen. This is the control.
(§3) The animals are then dosed with the compounds to be tested (orally or parenterally). Depending upon the route of administration, one to two hours are allowed to elapse after dosing. Blood is drawn and the same procedure employed as for the control is untreated animals.
The dose required to produce 50% inhibition of the aggregation is determined by dose response data obtained in this manner.

[3] = system: ADP-induced aggregation of blood platelet-rich plasma; assay: In Vivo/In Vitro platelet aggregation (ADP) after P.O. dosing of dogs; conditions: one to two hours after dosing
Experimental: as §1, §2, §3

Row | SMILES | antihypertensive / hypotensive activity of prior art compounds [1] | ED50 [2] | In Vivo/In Vitro Dogs P.O. 5 mg./kg. ADP % Inhibition [3]
1 | c1ccc2c(c1)CN1CCNC1=N2 [SPC2] | potent antihypertensive activity in rats, dogs, cats and rabbits | – | –
2 | CC1c2ccccc2N=C2NC(=O)CN21 (stereo not drawn) [Compound 29] | – | 7 mg/kg | 35%
